Reference: ChEMBL document CHEMBL3885861, “Open TG-GATES”

Organism: Rattus norvegicus
Assay: Open TG-GATES - Regimen: Daily Repeat
Format: toxicity, organism-based, Sprague-Dawley
Parameters: regimen Daily Repeat, gender Male, age 6 weeks
Settings: in vivo, po, 100 mg/kg, route gavage, dose level Low; for APTT / Bas / Eos / Fbg / Hb / Ht / Lym / MCH / MCHC / MCV / Mono / Neu / PT / Plat / RBC / Ret / WBC: tissue Blood; for KIDNEY_L / KIDNEY_R / KIDNEY_TOTAL: tissue Kidney; for LIVER: tissue Liver; for A/G / ALP / ALT / AST / BUN / CRE / Ca / Cl / DBIL / GLC / IP / K / LDH / Na / PL / RALB / TBIL / TC / TG / TP / gamma-GTP: tissue Plasma

Work on `COC1=CC(=O)C[C@@H](C)[C@]12Oc1c(Cl)c(OC)cc(OC)c1C2=O` [GRISEOFULVIN] yielded a TERMINAL_BW (72 h, time 3 day) of 226.6 g, an APTT (72 h, time 3 day) of 19.6 s and a Bas (72 h, time 3 day) of 0%. For the same compound, the Eos (72 h, time 3 day) was 1%, the Fbg (72 h, time 3 day) was 220 mg/dL and the Hb (72 h, time 3 day) was 13.2 g/dL. It also gave a Ht (72 h, time 3 day) of 39.1%, a Lym (72 h, time 3 day) of 79.6% and an MCH (72 h, time 3 day) of 22.1 pg. It also gave an MCHC (72 h, time 3 day) of 33.8%, an MCV (72 h, time 3 day) of 65.4 fL and a Mono (72 h, time 3 day) of 2.4%. For the same compound, the Neu (72 h, time 3 day) was 16.4%, the PT (72 h, time 3 day) was 12.6 s and the Plat (72 h, time 3 day) was 116.4 x10_4/uL. It also gave an RBC (72 h, time 3 day) of 599.4 x10_4/ul, a Ret (72 h, time 3 day) of 7.5% and a WBC (72 h, time 3 day) of 97.1 x10_2/uL. The KIDNEY_L (72 h, time 3 day) was 1 g, the KIDNEY_R (72 h, time 3 day) was 1 g and the KIDNEY_TOTAL (72 h, time 3 day) was 2 g. For the same compound, the LIVER (72 h, time 3 day) was 11.2 g, the A/G (72 h, time 3 day) was 1.6 and the ALP (72 h, time 3 day) was 947.8 IU/L. For the same compound, the ALT (72 h, time 3 day) was 35.8 IU/L, the AST (72 h, time 3 day) was 63 IU/L and the BUN (72 h, time 3 day) was 14.6 mg/dL. The CRE (72 h, time 3 day) was 0.4 mg/dL, the Ca (72 h, time 3 day) was 10.8 mg/dL and the Cl (72 h, time 3 day) was 103.8 meq/L. The DBIL (72 h, time 3 day) was 0.086 mg/dL, the GLC (72 h, time 3 day) was 213.6 mg/dL and the IP (72 h, time 3 day) was 7.9 mg/dL. For the same compound, the K (72 h, time 3 day) was 3.9 meq/L, the LDH (72 h, time 3 day) was 158.2 IU/L and the Na (72 h, time 3 day) was 140.8 meq/L. For the same compound, the PL (72 h, time 3 day) was 146 mg/dL, the RALB (72 h, time 3 day) was 3.4 g/dL and the TBIL (72 h, time 3 day) was 0.1 mg/dL. It also gave a TC (72 h, time 3 day) of 80.6 mg/dL, a TG (72 h, time 3 day) of 62.8 mg/dL and a TP (72 h, time 3 day) of 5.5 g/dL. The gamma-GTP (72 h, time 3 day) was 1.2 IU/L, the TERMINAL_BW ([…], time 7 day) was 262.3 g and the TERMINAL_BW ([…], time 14 day) was 308.3 g. It also gave a TERMINAL_BW ([…], time 28 day) of 393.4 g, an APTT ([…], time 7 day) of 19.8 s and a Bas ([…], time 7 day) of 0%. For the same compound, the Eos ([…], time 7 day) was 1%, the Fbg ([…], time 7 day) was 229.4 mg/dL and the Hb ([…], time 7 day) was 13.6 g/dL. The Ht ([…], time 7 day) was 40.4%, the Lym ([…], time 7 day) was 80.4% and the MCH ([…], time 7 day) was 21.3 pg. It also gave an MCHC ([…], time 7 day) of 33.8%, an MCV ([…], time 7 day) of 63 fL and a Mono ([…], time 7 day) of 2.2%. For the same compound, the Neu ([…], time 7 day) was 16%, the PT ([…], time 7 day) was 12.2 s and the Plat ([…], time 7 day) was 141.9 x10_4/uL. For the same compound, the RBC ([…], time 7 day) was 641.4 x10_4/ul, the Ret ([…], time 7 day) was 5.7% and the WBC ([…], time 7 day) was 131.1 x10_2/uL. The APTT ([…], time 14 day) was 20.1 s, the Bas ([…], time 14 day) was 0% and the Eos ([…], time 14 day) was 1%. It also gave a Fbg ([…], time 14 day) of 225.6 mg/dL, a Hb ([…], time 14 day) of 14.2 g/dL and a Ht ([…], time 14 day) of 42.2%. The Lym ([…], time 14 day) was 78%, the MCH ([…], time 14 day) was 20.4 pg and the MCHC ([…], time 14 day) was 33.7%. For the same compound, the MCV ([…], time 14 day) was 60.6 fL, the Mono ([…], time 14 day) was 3.2% and the Neu ([…], time 14 day) was 17.2%. For the same compound, the PT ([…], time 14 day) was 12.3 s, the Plat ([…], time 14 day) was 129.7 x10_4/uL and the RBC ([…], time 14 day) was 696.2 x10_4/ul. For the same compound, the Ret ([…], time 14 day) was 2.8%, the WBC ([…], time 14 day) was 131.1 x10_2/uL and the APTT ([…], time 28 day) was 21.2 s. It also gave a Bas ([…], time 28 day) of 0%, an Eos ([…], time 28 day) of 1% and a Fbg ([…], time 28 day) of 219.6 mg/dL. The Hb ([…], time 28 day) was 15 g/dL, the Ht ([…], time 28 day) was 44.1% and the Lym ([…], time 28 day) was 81.8%. For the same compound, the MCH ([…], time 28 day) was 19.5 pg, the MCHC ([…], time 28 day) was 34% and the MCV ([…], time 28 day) was 57.2 fL. For the same compound, the Mono ([…], time 28 day) was 2.2%, the Neu ([…], time 28 day) was 14.8% and the PT ([…], time 28 day) was 12.5 s. The Plat ([…], time 28 day) was 121.1 x10_4/uL, the RBC ([…], time 28 day) was 772 x10_4/ul and the Ret ([…], time 28 day) was 2.7%. It also gave a WBC ([…], time 28 day) of 138.9 x10_2/uL, a KIDNEY_L ([…], time 7 day) of 1.1 g and a KIDNEY_R ([…], time 7 day) of 1.1 g. It also gave a KIDNEY_TOTAL ([…], time 7 day) of 2.3 g, a KIDNEY_L ([…], time 14 day) of 1.2 g and a KIDNEY_R ([…], time 14 day) of 1.2 g. For the same compound, the KIDNEY_TOTAL ([…], time 14 day) was 2.4 g, the KIDNEY_L ([…], time 28 day) was 1.4 g and the KIDNEY_R ([…], time 28 day) was 1.4 g. The KIDNEY_TOTAL ([…], time 28 day) was 2.9 g, the LIVER ([…], time 7 day) was 12.7 g and the LIVER ([…], time 14 day) was 13.7 g. The LIVER ([…], time 28 day) was 16.7 g, the A/G ([…], time 7 day) was 1.5 and the ALP ([…], time 7 day) was 865.8 IU/L. The ALT ([…], time 7 day) was 36.2 IU/L, the AST ([…], time 7 day) was 62.2 IU/L and the BUN ([…], time 7 day) was 15.4 mg/dL. The CRE ([…], time 7 day) was 0.4 mg/dL, the Ca ([…], time 7 day) was 10.7 mg/dL and the Cl ([…], time 7 day) was 103.8 meq/L. It also gave a DBIL ([…], time 7 day) of 0.08 mg/dL, a GLC ([…], time 7 day) of 206.2 mg/dL and an IP ([…], time 7 day) of 7.1 mg/dL. It also gave a K ([…], time 7 day) of 3.8 meq/L, an LDH ([…], time 7 day) of 162.6 IU/L and a Na ([…], time 7 day) of 142 meq/L. For the same compound, the PL ([…], time 7 day) was 135.2 mg/dL, the RALB ([…], time 7 day) was 3.4 g/dL and the TBIL ([…], time 7 day) was 0.1 mg/dL. The TC ([…], time 7 day) was 75.4 mg/dL, the TG ([…], time 7 day) was 75 mg/dL and the TP ([…], time 7 day) was 5.7 g/dL. The gamma-GTP ([…], time 7 day) was 1 IU/L, the A/G ([…], time 14 day) was 1.5 and the ALP ([…], time 14 day) was 701.8 IU/L. The ALT ([…], time 14 day) was 35.2 IU/L, the AST ([…], time 14 day) was 57.4 IU/L and the BUN ([…], time 14 day) was 15.2 mg/dL. The CRE ([…], time 14 day) was 0.5 mg/dL, the Ca ([…], time 14 day) was 10.6 mg/dL and the Cl ([…], time 14 day) was 103.2 meq/L. It also gave a DBIL ([…], time 14 day) of 0.1 mg/dL, a GLC ([…], time 14 day) of 215.2 mg/dL and an IP ([…], time 14 day) of 7.4 mg/dL. It also gave a K ([…], time 14 day) of 4.1 meq/L, an LDH ([…], time 14 day) of 171.8 IU/L and a Na ([…], time 14 day) of 140.6 meq/L. It also gave a PL ([…], time 14 day) of 138.8 mg/dL, an RALB ([…], time 14 day) of 3.5 g/dL and a TBIL ([…], time 14 day) of 0.2 mg/dL. For the same compound, the TC ([…], time 14 day) was 72.6 mg/dL, the TG ([…], time 14 day) was 92.4 mg/dL and the TP ([…], time 14 day) was 5.8 g/dL. It also gave a gamma-GTP ([…], time 14 day) of 1 IU/L, an A/G ([…], time 28 day) of 1.3 and an ALP ([…], time 28 day) of 684.6 IU/L. For the same compound, the ALT ([…], time 28 day) was 31 IU/L, the AST ([…], time 28 day) was 55.8 IU/L and the BUN ([…], time 28 day) was 16 mg/dL. The CRE ([…], time 28 day) was 0.5 mg/dL, the Ca ([…], time 28 day) was 10.3 mg/dL and the Cl ([…], time 28 day) was 104.2 meq/L. The DBIL ([…], time 28 day) was 0.086 mg/dL, the GLC ([…], time 28 day) was 235.8 mg/dL and the IP ([…], time 28 day) was 6.4 mg/dL. For the same compound, the K ([…], time 28 day) was 3.5 meq/L, the LDH ([…], time 28 day) was 162.2 IU/L and the Na ([…], time 28 day) was 141.4 meq/L. The PL ([…], time 28 day) was 120.4 mg/dL, the RALB ([…], time 28 day) was 3.4 g/dL and the TBIL ([…], time 28 day) was 0.1 mg/dL. For the same compound, the TC ([…], time 28 day) was 66.2 mg/dL, the TG ([…], time 28 day) was 82 mg/dL and the TP ([…], time 28 day) was 6 g/dL. The gamma-GTP ([…], time 28 day) was 0.8 IU/L.
